What is called HC50 is the concentration that lyses half of the red blood cells. Read a low HC50 as stronger haemolysis. One may read the MIC as the lowest concentration found to suppress growth.

The results in this text go back to ChEMBL document CHEMBL5143732 (J Med Chem, 2022).

Data set [1] can be described thus: Hemolytic activity in human RBC measured after 1 hr. It counts as toxicity, cell-based, Erythrocyte. Conditions: red blood cells (erythrocytes).
The subject of another data set is Candida parapsilosis. The experiment in a line: Antifungal activity against Candida parapsilosis assessed as inhibition of fungal growth measured after 48 hrs by CLSI based agar dilution method. Particulars: Lodderomyces parapsilosis. The data set is classed as functional. A general note: In agar dilution the substance is mixed into plates at graded concentrations.

Data set [2] concerns Pichia kudriavzevii. The experiment in a line: Antifungal activity against Candida krusei assessed as inhibition of fungal growth measured after 48 hrs by CLSI based agar dilution method. The data set is classed as functional.
In a further data set the test system is Candida albicans. The experiment in a line: Antifungal activity against Candida albicans assessed as inhibition of fungal growth measured after 48 hrs by CLSI based agar dilution method. It counts as functional.
In data set [3] the test system is Pichia kudriavzevii. Nature of the data set: Antifungal activity against Candida krusei ATCC 6258 assessed as inhibition of fungal growth measured after 48 hrs by CLSI based agar dilution method. It counts as functional.
A further data set deals with Candida tropicalis. Nature of the data set: Antifungal activity against Candida tropicalis assessed as inhibition of fungal growth measured after 48 hrs by CLSI based agar dilution method. The data set is classed as functional.
The next data set concerns Cryptococcus neoformans. The experiment in a line: Antifungal activity against Cryptococcus neoformans ATCC 32609 assessed as inhibition of fungal growth measured after 48 hrs by CLSI based agar dilution method. The data set is classed as functional.

The structures appear in SMILES notation. In brackets after ≈: the same amount, converted by molar mass.

Regarding `CNCC(=O)N[C@@H]1[C@H](O)[C@H](O[C@H]2/C=C/C=C/C=C/C=C/C=C/C=C/C=C/[C@H](C)[C@@H](O)[C@@H](C)[C@H](C)OC(=O)C[C@H](O)C[C@H](O)CC[C@@H](O)[C@H](O)C[C@H](O)C[C@]3(O)C[C@H](O)[C@@H](C(=O)N(C)CCCO)[C@H](C2)O3)O[C@H](C)[C@H]1O`, the HC50 at 1 h in data set [1] is 9.52 µM. For the same molecule, the minimal inhibitory concentration (MIC) with Candida parapsilosis was 4 µg/mL (≈ 3.75 µM); with Pichia kudriavzevii [2], 0.5 µg/mL (≈ 0.469 µM); in the data set with Candida albicans it was 0.06 µg/mL (≈ 0.0563 µM); in the data set with Pichia kudriavzevii [3] it was 4 µg/mL (≈ 3.75 µM); with Candida tropicalis it was 4 µg/mL (≈ 3.75 µM); in the data set on Cryptococcus neoformans, 1 µg/mL (≈ 0.938 µM).

`CNCC(=O)N[C@@H]1[C@H](O)[C@H](O[C@H]2/C=C/C=C/C=C/C=C/C=C/C=C/C=C/[C@H](C)[C@@H](O)[C@@H](C)[C@H](C)OC(=O)C[C@H](O)C[C@H](O)CC[C@@H](O)[C@H](O)C[C@H](O)C[C@]3(O)C[C@H](O)[C@@H](C(=O)N4CCN(CC(O)CO)CC4)[C@H](C2)O3)O[C@H](C)[C@H]1O` (stereo partly drawn) returned a 50% haemolytic concentration (HC50) at 1 h in data set [1] of 9.06 µM. For the same molecule, the MIC was 0.25 µg/mL (≈ 0.22 µM) with Candida parapsilosis; 1 µg/mL (≈ 0.879 µM) in the data set with Pichia kudriavzevii [2]; 1 µg/mL (≈ 0.879 µM) with Candida albicans; 2 µg/mL (≈ 1.76 µM) in the data set with Pichia kudriavzevii [3]; 1 µg/mL (≈ 0.879 µM) with Candida tropicalis; 0.5 µg/mL (≈ 0.44 µM) in the data set with Cryptococcus neoformans.

The molecule `CNCC(=O)N[C@@H]1[C@H](O)[C@H](O[C@H]2/C=C/C=C/C=C/C=C/C=C/C=C/C=C/[C@H](C)[C@@H](O)[C@@H](C)[C@H](C)OC(=O)C[C@H](O)C[C@H](O)CC[C@@H](O)[C@H](O)C[C@H](O)C[C@]3(O)C[C@H](O)[C@@H](C(=O)N(C)CCO)[C@H](C2)O3)O[C@H](C)[C@H]1O` displayed an HC50 at 1 h in data set [1] of 14.8 µM. Also, the minimum inhibitory concentration (MIC) in the data set with Candida parapsilosis came to 1 µg/mL (≈ 0.95 µM); in the data set on Pichia kudriavzevii [2], 1 µg/mL (≈ 0.95 µM); with Candida albicans, 0.5 µg/mL (≈ 0.475 µM); in the data set on Pichia kudriavzevii [3], 2 µg/mL (≈ 1.9 µM); in the data set with Candida tropicalis it was 1 µg/mL (≈ 0.95 µM); with Cryptococcus neoformans, 0.5 µg/mL (≈ 0.475 µM).

`C[C@@H]1[C@H](O)[C@@H](C)/C=C/C=C/C=C/C=C/C=C/C=C/C=C/[C@H](O[C@@H]2O[C@H](C)[C@@H](O)[C@H](NC(=O)CN)[C@@H]2O)C[C@@H]2O[C@](O)(C[C@@H](O)C[C@@H](O)[C@H](O)CC[C@@H](O)C[C@@H](O)CC(=O)O[C@H]1C)C[C@H](O)[C@H]2C(=O)NCCCO` showed an HC50 at 1 h in data set [1] of 7.86 µM. The MIC in the data set on Candida parapsilosis was found to be 0.5 µg/mL (≈ 0.482 µM); with Pichia kudriavzevii [2], 0.25 µg/mL (≈ 0.241 µM); in the data set with Candida albicans it was 0.5 µg/mL (≈ 0.482 µM); in the data set with Pichia kudriavzevii [3] it was 0.25 µg/mL (≈ 0.241 µM); with Candida tropicalis, 2 µg/mL (≈ 1.93 µM); in the data set on Cryptococcus neoformans it was 0.25 µg/mL (≈ 0.241 µM).

In data set [1], `CNCC(=O)N[C@@H]1[C@H](O)[C@H](O[C@H]2/C=C/C=C/C=C/C=C/C=C/C=C/C=C/[C@H](C)[C@@H](O)[C@@H](C)[C@H](C)OC(=O)C[C@H](O)C[C@H](O)CC[C@@H](O)[C@H](O)C[C@H](O)C[C@]3(O)C[C@H](O)[C@@H](C(=O)N4CCN(CCCO)CC4)[C@H](C2)O3)O[C@H](C)[C@H]1O` gave an HC50 at 1 h of 19.5 µM. Besides, the MIC with Candida parapsilosis was determined as 0.5 µg/mL (≈ 0.446 µM); with Pichia kudriavzevii [2], 0.5 µg/mL (≈ 0.446 µM); in the data set with Candida albicans it was 0.5 µg/mL (≈ 0.446 µM); in the data set with Pichia kudriavzevii [3], 2 µg/mL (≈ 1.78 µM); in the data set with Candida tropicalis, 0.5 µg/mL (≈ 0.446 µM); in the data set on Cryptococcus neoformans, 0.125 µg/mL (≈ 0.111 µM).

For `CNCC(=O)N[C@@H]1[C@H](O)[C@H](O[C@H]2/C=C/C=C/C=C/C=C/C=C/C=C/C=C/[C@H](C)[C@@H](O)[C@@H](C)[C@H](C)OC(=O)C[C@H](O)C[C@H](O)CC[C@@H](O)[C@H](O)C[C@H](O)C[C@]3(O)C[C@H](O)[C@@H](C(=O)NCCCO)[C@H](C2)O3)O[C@H](C)[C@H]1O`, the HC50 at 1 h in data set [1] amounted to 6.24 µM. For the same molecule, the minimum inhibitory concentration (MIC) in the data set with Candida parapsilosis was determined as 0.5 µg/mL (≈ 0.475 µM); with Pichia kudriavzevii [2] it was 0.5 µg/mL (≈ 0.475 µM); in the data set with Candida albicans, 0.125 µg/mL (≈ 0.119 µM); in the data set on Pichia kudriavzevii [3], 0.25 µg/mL (≈ 0.238 µM); in the data set with Candida tropicalis, 0.5 µg/mL (≈ 0.475 µM); in the data set with Cryptococcus neoformans it was 0.25 µg/mL (≈ 0.238 µM).

In the case of `C[C@@H]1[C@H](O)[C@@H](C)/C=C/C=C/C=C/C=C/C=C/C=C/C=C/[C@H](O[C@@H]2O[C@H](C)[C@@H](O)[C@H](NC(=O)CCN)[C@@H]2O)C[C@@H]2O[C@](O)(C[C@@H](O)C[C@@H](O)[C@H](O)CC[C@@H](O)C[C@@H](O)CC(=O)O[C@H]1C)C[C@H](O)[C@H]2C(=O)NCCO`, the MIC in the data set with Candida parapsilosis stood at 8 µg/mL (≈ 7.71 µM); in the data set with Pichia kudriavzevii [2], 2 µg/mL (≈ 1.93 µM); in the data set with Candida albicans, 2 µg/mL (≈ 1.93 µM); in the data set with Pichia kudriavzevii [3] it was 4 µg/mL (≈ 3.85 µM); in the data set on Candida tropicalis, 8 µg/mL (≈ 7.71 µM); with Cryptococcus neoformans, 2 µg/mL (≈ 1.93 µM).

In the case of `CNCC(=O)N[C@@H]1[C@H](O)[C@H](O[C@H]2/C=C/C=C/C=C/C=C/C=C/C=C/C=C/[C@H](C)[C@@H](O)[C@@H](C)[C@H](C)OC(=O)C[C@H](O)C[C@H](O)CC[C@@H](O)[C@H](O)C[C@H](O)C[C@]3(O)C[C@H](O)[C@@H](C(=O)N4CCN(CCS(C)(=O)=O)CC4)[C@H](C2)O3)O[C@H](C)[C@H]1O`, the minimal inhibitory concentration (MIC) was determined as 2 µg/mL (≈ 1.71 µM) in the data set with Candida parapsilosis; 4 µg/mL (≈ 3.42 µM) with Pichia kudriavzevii [2]; 2 µg/mL (≈ 1.71 µM) in the data set on Candida albicans; 16 µg/mL (≈ 13.7 µM) in the data set with Pichia kudriavzevii [3]; 4 µg/mL (≈ 3.42 µM) in the data set with Candida tropicalis; 2 µg/mL (≈ 1.71 µM) in the data set on Cryptococcus neoformans.

On to `C[C@@H]1[C@H](O)[C@@H](C)/C=C/C=C/C=C/C=C/C=C/C=C/C=C/[C@H](O[C@@H]2O[C@H](C)[C@@H](O)[C@H](NC(=O)COCCN)[C@@H]2O)C[C@@H]2O[C@](O)(C[C@@H](O)C[C@@H](O)[C@H](O)CC[C@@H](O)C[C@@H](O)CC(=O)O[C@H]1C)C[C@H](O)[C@H]2C(=O)N1CCN(CCO)CC1`, for which the minimum inhibitory concentration (MIC) was 2 µg/mL (≈ 1.76 µM) in the data set on Candida parapsilosis; 2 µg/mL (≈ 1.76 µM) in the data set on Pichia kudriavzevii [2]; 0.5 µg/mL (≈ 0.44 µM) with Candida albicans; 16 µg/mL (≈ 14.1 µM) with Pichia kudriavzevii [3]; 0.25 µg/mL (≈ 0.22 µM) in the data set with Candida tropicalis; 0.5 µg/mL (≈ 0.44 µM) in the data set with Cryptococcus neoformans.

Consider `CNCC(=O)N[C@@H]1[C@H](O)[C@H](O[C@H]2/C=C/C=C/C=C/C=C/C=C/C=C/C=C/[C@H](C)[C@@H](O)[C@@H](C)[C@H](C)OC(=O)C[C@H](O)C[C@H](O)CC[C@@H](O)[C@H](O)C[C@H](O)C[C@]3(O)C[C@H](O)[C@@H](C(=O)NCCCN(C)C)[C@H](C2)O3)O[C@H](C)[C@H]1O`, for which the MIC with Candida parapsilosis is 4 µg/mL (≈ 3.71 µM); in the data set on Pichia kudriavzevii [2] it was 2 µg/mL (≈ 1.85 µM); in the data set with Candida albicans, 2 µg/mL (≈ 1.85 µM); in the data set with Pichia kudriavzevii [3], 16 µg/mL (≈ 14.8 µM); in the data set on Candida tropicalis, 2 µg/mL (≈ 1.85 µM); with Cryptococcus neoformans it was 1 µg/mL (≈ 0.926 µM).

On to `COC(=O)NNC(=O)[C@H]1[C@@H]2C[C@@H](O[C@@H]3O[C@H](C)[C@@H](O)[C@H](NC(=O)CCN)[C@@H]3O)/C=C/C=C/C=C/C=C/C=C/C=C/C=C/[C@H](C)[C@@H](O)[C@@H](C)[C@H](C)OC(=O)C[C@H](O)C[C@H](O)CC[C@@H](O)[C@H](O)C[C@H](O)C[C@](O)(C[C@@H]1O)O2`, for which the MIC is 8 µg/mL (≈ 7.5 µM) in the data set on Candida parapsilosis; 0.5 µg/mL (≈ 0.468 µM) in the data set on Pichia kudriavzevii [2]; 0.25 µg/mL (≈ 0.234 µM) in the data set with Candida albicans; 8 µg/mL (≈ 7.5 µM) in the data set with Pichia kudriavzevii [3]; 8 µg/mL (≈ 7.5 µM) in the data set on Candida tropicalis; 0.25 µg/mL (≈ 0.234 µM) with Cryptococcus neoformans.

As for `C[C@@H]1[C@H](O)[C@@H](C)/C=C/C=C/C=C/C=C/C=C/C=C/C=C/[C@H](O[C@@H]2O[C@H](C)[C@@H](O)[C@H](N)[C@@H]2O)C[C@@H]2O[C@](O)(C[C@@H](O)C[C@@H](O)[C@H](O)CC[C@@H](O)C[C@@H](O)CC(=O)O[C@H]1C)C[C@H](O)[C@H]2C(=O)NNC(=O)c1ccccc1`, the MIC was 4 µg/mL (≈ 3.84 µM) with Candida parapsilosis; 1 µg/mL (≈ 0.959 µM) in the data set with Pichia kudriavzevii [2]; 0.5 µg/mL (≈ 0.48 µM) in the data set on Candida albicans; 2 µg/mL (≈ 1.92 µM) with Pichia kudriavzevii [3]; 4 µg/mL (≈ 3.84 µM) in the data set on Candida tropicalis; 0.5 µg/mL (≈ 0.48 µM) with Cryptococcus neoformans.
